According to patent US12168673B2 (Mitopower, Inc., priority 2022, dated 2024):

Columns and labels:
HepG2 cells = experiment: Cellular NAD+ levels in HepG2 cells, NAD cycling assay; type: cell-based; conditions: for NAD+ level increase at the lowest concentration: HepG2, 10 μM
Protocol: HepG2 cells were seeded at densities of 1 million cells per well in a 6 well plate. The next day, cells were treated with test compounds for 4 hours and were harvested using the below protocol. Each well was washed once with 2 mL ice cold PBS which was removed and 400 μL 2M HClO4 (perchloric acid) was added to each well, which was scraped and the residue transferred to 1.5 mL tubes and spun down. 100 μL of the supernatant was transferred to a clean 1.5 mL vial and 150 μL KOH/MOPS 2M/0.6M (neutralization buffer) was added to each vial under vortex which was spun down. The pH was measured following the NAD cycling protocol.
NAD standards were prepared from 0 to 0.5 μM in water as per Table 7.
The cycling reaction was prepared as follows. 10 μl samples were added followed by water to bring the volume up to 25 μl. 25 μl of each standard was used in duplicates for the reaction. Then 50 μl of mix A (cycling mix) was added to the sample and standards. Mix A contained the following:
Reaction was initiated using 25 μL enzyme mix (15 U/ml of alcohol dehydrogenase+15 U/mL of malate dehydrogenase). The samples were incubated at 37° C. for 30 minutes in a water bath and the reaction terminated by heating in a water bath for 5 minutes at 80° C. Then 25 μl of the sample was used in the detection step. 100 μl mix B, which contains following components were added to the sample.
Reaction was initiated using a start reagent (prepared by mixing 10 μl of malate dehydrogenase and 10 μl of glutamate oxaloacetic transaminase in 1 ml of water. The reading were measured at 340 nm in a envision plate reader. The results are shown in FIGS. 4A-4D.

[1] = tested on: primary human hepatocytes; experiment: NAD+ in primary human hepatocytes (Example 12); type: cell-based; conditions: 10 μM, four hours of incubation
Protocol: (§1) Cryopreserved primary human hepatocytes, sourced from Lonza were cultured and were seeded into 6 well dishes with 0.5 million cells per well. […] The cells were later spun down and extracted. The supernatant was tested via LCMS/MS for NAD^+.

[2] = tested on: primary human hepatocytes; experiment: NAD+ in primary human hepatocytes at 250 μM (Example 10); type: cell-based; conditions: four hours of incubation
Protocol: as §1

human hepatocytes [3] = experiment: Human hepatocyte clearance; type: in vitro ADME
Protocol: (§2) A hepatocyte vial was taken out from the liquid nitrogen tank and was thawed in a water bath maintained at 37° C. The thawed cell suspension was transferred into a torsion tube containing 50 mL of thawing media (Xenotech). The thawing media containing hepatocytes was centrifuged at 1000 rpm for 5 min, the supernatant was discarded and the pellet was resuspended in 2 ml of Xenotech OptiIncubate Media. The cells were counted by using a haemocytometer after mixing an aliquot of cell suspension with equal volume of trypan blue. The cell suspension was diluted to a working density of 2 million cells with DMEM media without FBS/incubation media.
(§3) The assay was performed in duplicates (n=2). 150 μL of 2 million cell working stock of hepatocyte cell suspension was added to a 24 well plate and incubated in a 37° C. incubator, with speed of 500 RPM for 10 min. 150 μL of 2 μM working stock of test compound was incubated separately. The reaction at 0, 15, 30, 60 and 90 min was stopped by precipitating 20 μL of incubation mixture with 200 μL of acetonitrile containing internal standard. […] The supernatant was separated and diluted 1:1 with water before injecting in LC-MS/MS analysis.

[4] = Human hepatocyte clearance; type: in vitro ADME; conditions: human hepatocytes, 1 μM; for half-life at 1 μM: 0-90 min, read-out: T½; for hepatocyte CLint at 1 μM: read-out: Intrinsic Clearance (CL Int)
Protocol: as §2, §3

human hepatocytes [5] = experiment: Human hepatocyte stability
Protocol: 10 mM stock solution of test compound was prepared in DMSO and diluted to a concentration of 1 mM with DMSO. Working concentration of 2 μM was prepared by further dilution with PBS. Preincubation mixture of 150 μL of hepatocyte cell suspension (1,000,000 cells/mL, INVITROGRO HT medium buffer), was added to vials for preincubation for 10 min @37° C.
150 μL of 2 μM working stock of the test compound was added to the cell suspension and incubated at @37 C at 500 rpm. The reaction was stopped at 0, 15, 30, 60 and 90 min by precipitating 50 μL of the incubation mixture with 150 μL of acetonitrile. Samples were vortexed for 5 min at 1200 rpm and centrifuged at 4000 rpm for 10 min. 150 μL of the supernatant was diluted with 150 μL of water and injected in MS system (SCIEX, API 4500 Q Trap) for analysis.

SMILES	NAD+ level increase at the lowest concentration (HepG2 cells)	NAD+ level increase compared to nicotinic acid (HepG2 cells; HepG2, all concentrations (10-250 μM))	NAD+ level increase compared to untreated cells [1]	NAD+ level increase compared to untreated cells [2]	Remarks (clearance class) (human hepatocytes [3])	half-life at 1 μM [4]	hepatocyte CLint at 1 μM [4]	clearance in human hepatocytes (in words) (human hepatocytes [5])	% Parent Remaining (human hepatocytes [5]; 0 mins)	% Parent Remaining (human hepatocytes [5]; 15 mins)	% Parent Remaining (human hepatocytes [5]; 30 mins)	% Parent Remaining (human hepatocytes [5]; 60 mins)	% Parent Remaining (human hepatocytes [5]; 90 mins)
COC(=O)[C@@H](C)N[P@@](=O)(OC[C@H]1OC(OC(=O)c2cccnc2)[C@H](O)[C@@H]1O)Oc1ccccc1 (single isomer, unassigned) [Compound 104]	statistically significant increase	statistically significant increase	statistically significant NAD^+ level increases	statistically significant NAD^+ level increases	medium clearance	48.1 min	14.4 µL/min/1e6 cells	medium clearance	100%	78%	65%	45%	24%
COC(=O)[C@@H](C)N[P@](=O)(OC[C@H]1OC(OC(=O)c2cccnc2)[C@H](O)[C@@H]1O)Oc1ccccc1 (single isomer, unassigned) [Compound 103]	statistically significant increase	–	statistically significant NAD^+ level increases	statistically significant NAD^+ level increases	High	22.2 min	31.3 µL/min/1e6 cells	–	100%	63%	40%	15%	5%
